ChEMBL document CHEMBL1157777, “Identification of hits as matrix-2 protein inhibitors through the focused screening of a small primary amine library” (J Med Chem, 2010)
The source made the active and inactive calls. The rule behind the calls is not given here.

Key:
[1] = test system: Influenza A virus; assay: Antiviral activity against Influenza A virus (A/Hong Kong/8/1968([…])) infected in MDCK cells; type: functional, organism-based
[2] = Inhibition of avian influenza virus H5N1 matrix 2 protein expressed in HEK293 cells assessed as cell viability after 24 hrs; type: cell-based; settings: Influenza A virus, H5N1, HEK293, 24 h
[3] = Inhibition of avian influenza virus (H5N1) matrix 2 protein expressed in HEK293 cells by path clamp electrophysiology method; type: cell-based; settings: Influenza A virus
[4] = test system: HEK293; assay: Inhibition of avian influenza virus (H5N1) matrix 2 protein expressed in HEK293 cells at 50 uM by path clamp electrophysiology method; type: cell-based; settings: Influenza A virus

`C[C@H]1[C@H](N)C[C@@H]2C[C@H]1C2(C)C` gave an IC50 [1] of 1.36 µM, an IC50 [2] of 5.96 µM and an IC50 [3] of 4.3 µM.
With `NC12CC3CC(CC1C3)C2` the IC50 [1] was 38.2 µM, the IC50 [2] was 19 µM and the IC50 [3] was 13.5 µM.
For `CC1(C)[C@@H]2CC[C@H](CN)[C@H]1C2`, the IC50 [1] was 2.3 µM, the IC50 [2] was 25.5 µM and the IC50 [3] was 4.4 µM.
For `C[C@@H]1[C@@H](N)C[C@H]2C[C@@H]1C2(C)C`, the IC50 [1] was 6.02 µM, the IC50 [2] was 23 µM and the IC50 [3] was 6.8 µM.
With `NC12CC3CC(CC(C3)C1)C2` [AMANTADINE] the IC50 [1] was 5.96 µM, the IC50 [2] was 3.52 µM and the IC50 [3] was 8.8 µM. The inhibition [4] was “inactive”.
For `CC(C)(C)C1CCC(N)CC1` (centres undefined), the IC50 [1] was 33.5 µM, the IC50 [2] was 3.37 µM and the IC50 [3] was 4.8 µM.
